Read-outs that look alike come from different tables or passages of the source.
Columns and labels:
[1] = system: U-937 lymphoma; assay: MTT in vitro cytotoxicity; details: read-out: IC50 value Lymphoma U-937
[2] = system: HL-60 human leukemia; assay: MTT in vitro cytotoxicity; details: read-out: IC50 value Leukemia HL-60
[3] = system: S-180; assay: In vivo anticancer activity: increase in median survival time; set-up: species or system Swiss albino male mice
[4] = system: HL-60 cells; assay: Annexin V-FITC/PI flow cytometric analysis of apoptosis; type: cell-based, human; details: 24 h
Description: Induction of apoptosis in vitro by Compound 3b and 3f was further determined in HL-60 cells by flow cytometric assay using an Annexin V-FITC Apoptosis Detection Kit (BD Biosciences Pharmingen, San Diego, USA). Camptothecin was included in the study for comparison. Exponentially growing HL-60 cells in complete RPMI-1640 media (100 µl of 5×10^6) were plated in six well plates. 10 µl of each Compound in DMSO (5 and 10 µM concentrations) was added to the wells followed by the addition of required media (total volume 1ml). Plates were incubated at 37°C for 24 h. The cells were centrifuged at room temperature at 1500 rpm for 5 min. The pellet was washed twice with cold PBS and was re-suspended in the binding buffer (1X, 100µl) provided in the Kit. The cells were stained with Annexin V-FITC (5 µl) and Propidium Iodide [PI] (5µl) and incubated for 15 min in the dark at 25°C. Next 400µl of binding buffer was added to each tube and analyzed on a FACScan flow cytometer (Becton Dickinson, Mountainview, CA) using Cell Quest software. Cells stained with both Annexin-V-FITC and PI, containing DMSO as vehicle was used as stained control. Cells that were annexin^+ /Pr [Lower right quadrant (LR)] and annexin^+/PI^+ [Upper right quadrant (UR)] were considered as early apoptotic and late apoptotic respectively.

[5] = system: MOLT-4 cells; assay: as above; type: cell-based, Human; details: 5µM, 6 hrs
Description: Events of apoptosis were analyzed using Annexin V-FITC Apoptosis Detection Kit (A 2214 Sigma Aldrich, USA). Human leukemia Cells (MOLT-4, 1x10^6 cells/ml) in 6-well plate were treated with Compound 3f (3 and 5µg/ml), camptothecin (5µM) and incubated for 6 hrs. After incubation, the cells were centrifuged, rinsed with PBS twice and re-suspended in binding buffer (10 mM HEPES/NaOH, pH 7.5 containing 0.14M NaCl and 25 mM CaCl2). An aliquot (500 µl) of suspension was stained with of Annexin V-FITC (5 µl) and Propidium Iodide (10 µl). The cells were stored for 10 minutes at room temperature in the dark and then analyzed by BD-LSR flow cytometer (Becton Dickinson, USA) at two wavelengths to measure fluorescence for of Annexin V & PI binding at 515 and 639 nm.

[6] = system: MOLT-4 cells; assay: Flow cytometric DNA cell cycle analysis (sub-G1 fraction); type: cell-based, Human; details: camptothecin 1µM, 3 hrs
Description: Effect of DNA content by cell cycle phase distribution was assessed using MOLT-4 cells. […] The incubation period was 3 hrs in case of camptothecin and 24 hrs. in rest of the treatments. The cells were then washed twice with ice-cold PBS, harvested, fixed with ice-cold PBS in 70% ethanol, and stored at -20 °C for 30 min. After fixation, the cells were incubated with RNase A (0.1 mg/ml) at 37°C for 30 min, stained with propidium iodide (50 µg/ml) for 30 min on ice in dark, and then measured for DNA content using BD-LSR Flow cytometer (Becton Dickinson, USA) equipped with electronic doublet, discrimination capability using blue (488nm) excitation from argon laser. Data were collected in list mode on 10,000 events for FL2-A vs. FL2-W and analyzed using Mod Fit 2.0 software (Fig 4). […] The sub-G1 fractions for control and camptothecin were 0.64 (Fig. 4A) and 11.92 % (Fig. 4B).

[7] = system: HCT-15; assay: SRB in vitro cytotoxicity, human tumor cell line; type: cell-based; details: 10^-5 M, Colon: HCT-15, read-out: growth inhibition
Description: (§1) Compounds 3a-g were screened by sulforhodamine-B (SRB) semi-automated assay in a battery of cell lines. […] A., et. al. (1991); Feasibility high flux anticancer screen utilizing diverse panel of human tumor cell lines in culture. J Natl Cancer Inst. 83, 757-766]. Each compound was tested in triplicate sets of experiments at 10^-4 to 10^-6 M concentrations (Table 4).
(§2) A stock solution of 2 x 10^-2M was prepared in DMSO. The stock solutions were serially diluted to obtain working test solutions with complete growth medium (RPMI-1640 medium with 2mM glutamine, 100µg/ml streptomycin, pH 7.4, sterilized by filtration and supplemented with 10% fetal bovine serum and 100 units/ml penicillin before use) containing 50 µg/ml of gentamycin to obtain working test solutions. The working test solutions were not filtered/ sterilized but microbial contamination was controlled by addition of gentamycin in complete growth medium used for dilution of stock solutions to prepare working test solutions.
(§3) In vitro cytotoxicity against human cancer cell lines was determined^2 [Monk. A., et. al. (1991); Feasibility high flux anticancer screen utilizing diverse panel of human tumor cell lines in culture. J Natl Cancer Inst. 83, 757-766] using 96-well tissue culture plates. The cells were grown in tissue culture flasks in complete growth medium at 37°C in an atmosphere of 5% CO2 and 95% relative humidity in a carbon dioxide incubator. The cell suspension of required cell density (1-2 lakhs/ml) depending on the mass doubling time of cell lines was prepared in complete growth medium for determination of cytotoxicity. The aliquots of 100 µl of cell suspension were added to each well on a 96-well tissue culture plate. The blank wells contained complete medium in place of cell suspension. Simultaneously, control experiments with positive controls containing known anticancer agents were carried out. Cells were incubated for 24 hr.
(§4) The test materials (100 µl in each well) were added after 24-hours to the wells containing cell suspension and blank wells. The cells were allowed to grow in presence of test material by further incubating the plates for 48 hours. At the end of incubation period the cell growth was stopped by gently layering trichloroacetic acid (50% TCA, 50µl/well) on top of the medium in all the wells. The plates were incubated at 4°C for 1 hr. The plates were washed five times with distilled water to remove TCA, growth medium, low molecular weight metabolites, serum proteins etc. and air-dried.
(§5) The cell growth was measured^3 [Skehan, P, Storeng, R Scudiero, D, Monks, A, Mcmahon, J, Vistica, D, Warren, J.T., Bokesch, H., Kenney, S., Boyd, M.R. (1990). New colorimetric cytotoxicity assay for anti-cancer drug screening. J Natl Cancer Inst. 82: 1107-12] by staining with Sulphorhodamine B. Sulphorhodamine B (SRB, 0.4% in 1% acetic acid, 100 µl/well) was added to each well and plates were allowed to stand at room temperature for 30 minutes. The plates were washed with 1% acetic acid four times and then dried. Tris-HCl buffer (0.01 M, pH 10.5, 100 µl/well) was added to each well to solublise the dye. The plates were shaken gently for 10 minutes on a shaker and the optical density was recorded on ELISA reader at 540 nm. The cell growth was determined by subtracting mean OD value of respective blank from the mean OD value of experimental set. Percent growth in presence of test material was calculated considering the growth in absence of any test material as 100% and in turn percent growth inhibition in presence of test material was calculated. All the experiments were carried out in quadruplicate.

[8] = system: SW-620; assay: SRB in vitro cytotoxicity, human tumor cell line; type: cell-based; details: 10^-5 M, Colon: SW-620, read-out: growth inhibition
Description: as §1, §2, §3, §4, §5

[9] = system: 502713; assay: SRB in vitro cytotoxicity, human tumor cell line; type: cell-based; details: 10^-5 M, Colon: 502713, read-out: growth inhibition
Description: as §1, §2, §3, §4, §5

[10] = system: IMR-32; assay: SRB in vitro cytotoxicity, human tumor cell line; type: cell-based; details: 10^-5 M, Neuroblastoma: IMR-32, read-out: growth inhibition
Description: as §1, §2, §3, §4, §5

[11] = system: S-180 cells; assay: 3H-thymidine and 3H-uridine incorporation in vitro (DNA and RNA synthesis)
[12] = S-180, 6 mg/kg i.p., 7 injns., days 1-7
[13] = S-180, 30 mg/kg i.p., 7 injns., days 1-7
[14] = S-180, 60 mg/kg i.p., 7 injns., days 1-7
[15] = S-180, 60 mg/kg i.p., 7 injns., days 5-11
[16] = S-180, 20 mg/kg i.p., 7 injns., days 1-7
[17] = S-180, 0.5 mg/kg i.p., 7 injns., days 1-7
[18] = S-180, 1 mg/kg i.p., 7 injns., days 1-7

Compound: O=NN(CCCl)C(=O)NCCCl [BCNU, Bis (2-chloroethyl-nitrosourea)]
- IC50 ([1]; MTT, 96 h): 12.3 µM
- IC50 ([2]; MTT, 96 h): 30.5 µM

Compound: O=P1(N(CCCl)CCCl)NCCCO1 (stereo not shown) [Cyclophosphamide, reference compound]
- MST [3, 12]: 33.0 days
- T/C % [3, 12]: 143%

Compound: N.N.[Cl][Pt][Cl] [Cis-Platinum]
- IC50 ([1]; MTT, 96 h): 3.2 µM
- IC50 ([2]; MTT, 96 h): 7 µM

Compound: CC[C@@]1(O)C(=O)OCc2c1cc1n(c2=O)Cc2cc3ccccc3nc2-1 [camptothecin, reference compound]
- early apoptotic cells (Annexin V^+/PI^-), LR ([4]; 5 µM): 7.79%
- late apoptotic cells (Annexin V^+/PI^+), UR ([4]; 5 µM): 5.46%
- total apoptotic cells (apoptotic cell population) ([4]; 5 µM): 13.3%
- early apoptotic cells (Annexin V^+/PI^-), LR ([4]; 10 µM): 10.52%
- late apoptotic cells (Annexin V^+/PI^+), UR ([4]; 10 µM): 5.30%
- total apoptotic cells (apoptotic cell population) ([4]; 10 µM): 15.8%
- total apoptotic cells [5]: 8.83%
- sub-G1 fraction [6]: 11.92%

Compound: O=C1c2cccc3cc([N+](=O)[O-])cc(c23)C(=O)N1CCCCl [Compound 3g, 5-Nitro-2-[3-(Chloropropyl)]-1H-benz[de]isoquinoline-1,3-dione]
- MST [3, 13]: 25.5 days
- T/C % [3, 13]: 106%
- MST [3, 14]: 24.0 days
- T/C % [3, 14]: 129%
- MST [3, 15]: 25.0 days
- T/C % [3, 15]: 104%

Compound: O=c1[nH]cc(F)c(=O)[nH]1 [Compound 5-FU, 5-fluorouracil, reference compound]
- IC50 ([1]; Homo sapiens, U-937, 96 h): 4.7 µM
- IC50 ([2]; Homo sapiens, HL-60, 96 h): 266 µM
- MST [3, 16]: 53.5 days
- Survivors > 60 days [3, 16]: 3
- T/C % [3, 16]: 233%
- T/C % ([3]; mouse, in vivo): 233

Compound: O=C1c2cccc3c([N+](=O)[O-])ccc(c23)C(=O)N1CCCl [Compound 3b, 6-Nitro-2-[2-(Chloroethyl)]-1H-benz[de]isoquinoline-1,3-dione]
- IC50 ([1]; Homo sapiens, U-937, 96 h): 0.66 µM
- IC50 ([2]; Homo sapiens, HL-60, 96 h): 0.8 µM
- MST ([3]; S-180, 40 mg/kg i.p., 7 injns., days 1-7): 20.5 days
- MST ([3]; S-180, 80 mg/kg i.p., 7 injns., days 1-7): 23.0 days
- early apoptotic cells (Annexin V^+/PI^-), LR ([4]; 5 µM): 4.5%
- late apoptotic cells (Annexin V^+/PI^+), UR ([4]; 5 µM): 5.2%
- total apoptotic cells (apoptotic cell population) ([4]; 5 µM): 9.7%
- early apoptotic cells (Annexin V^+/PI^-), LR ([4]; 10 µM): 15.3%
- late apoptotic cells (Annexin V^+/PI^+), UR ([4]; 10 µM): 33.5%
- total apoptotic cells (apoptotic cell population) ([4]; 10 µM): 48.8%
- inhibition at 10 µM [7]: > 50%
- inhibition at 10 µM [8]: > 50%
- inhibition at 10 µM [9]: > 50%
- inhibition at 10 µM [10]: > 50%

Compound: CN(C)CCN1C(=O)c2cccc3cc([N+](=O)[O-])cc(c23)C1=O [Mitonafide, reference compound]
- inhibition at 8 µM ([11]; Mus musculus, S-180, read-out: DNA synthesis inhibition (3H-thymidine uptake)): 93%
- RNA synthesis inhibition (3H-uridine uptake) ([11]; S-180 cells, 8 µM, 1 hr incubation, with respect to control): 92%
- MST [3, 17]: 36.5 days
- Survivors > 60 days [3, 17]: 1
- T/C % [3, 17]: 187%
- MST [3, 18]: 25.0 days
- T/C % [3, 18]: 128%

Compound: NC(=O)NO [Hydroxyurea]
- IC50 ([1]; Homo sapiens, U-937, 96 h): 115 µM
- IC50 ([2]; Homo sapiens, HL-60, 96 h): 204 µM
